Experimental data reported in the supplement of paper PMC10307832.

Experiments:
Test in all cases: relative viability (nuclei count vs DMSO), 5 days (fraction); higher = more cells survive
[1] = compound: COCC[n+]1c2c(n(Cc3cnccn3)c1C)C(=O)c1ccccc1C2=O [YM155] + CS(=O)(=O)N1CCN(Cc2cc3nc(-c4cccc5[nH]ncc45)nc(N4CCOCC4)c3s2)CC1 [Pictilisib] (partner 1 µM)
Summary of the method: (§1)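 Values are medians from duplicate plates. Each reflects relative viability, defined as the nuclei count of treated wells over that of vehicle wells. Lung cancer cell lines in 1536-well plates were pin-tool dosed one day after seeding with one drug alone or with a fixed anchor-drug dose plus five library-drug doses (not always all listed) in √10 steps, then fixed, stained and imaged at 4× after 5 days.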

[2] = compound: COCC[n+]1c2c(n(Cc3cnccn3)c1C)C(=O)c1ccccc1C2=O [YM155] + NC(=O)Nc1cc(-c2cccc(F)c2)sc1C(=O)N[C@H]1CCCNC1 [AZD7762] (partner 0.2 µM)
Summary of the method: as §1

[3] = compound: CC(C)(C)c1cc(NC(=O)Nc2ccc(-c3cn4c(n3)sc3cc(OCCN5CCOCC5)ccc34)cc2)no1 [Quizartinib] + CCNC(=O)c1noc(-c2cc(C(C)C)c(O)cc2O)c1-c1ccc(CN2CCOCC2)cc1 [Luminespib] (partner 0.01 µM)
Summary of the method: as §1

[4] = compound: CC(C)(C)c1cc(NC(=O)Nc2ccc(-c3cn4c(n3)sc3cc(OCCN5CCOCC5)ccc34)cc2)no1 [Quizartinib] + O=C(c1cc(Cc2n[nH]c(=O)c3ccccc23)ccc1F)N1CCN(C(=O)C2CC2)CC1 [Olaparib] (partner 8 µM)
Summary of the method: as §1

Cell Line	relative viability ([1]; first compound 0.002 µM)	relative viability ([1]; first compound 0.006325 µM)	relative viability ([1]; first compound 0.02 µM)	relative viability ([1]; first compound 0.06325 µM)	relative viability ([2]; first compound 0.002 µM)	relative viability ([2]; first compound 0.006325 µM)	relative viability ([2]; first compound 0.02 µM)	relative viability ([2]; first compound 0.06325 µM)	relative viability ([3]; first compound 0.001 µM)	relative viability ([3]; first compound 0.003162 µM)	relative viability ([3]; first compound 0.01 µM)	relative viability ([3]; first compound 0.03162 µM)	relative viability ([3]; first compound 0.1 µM)	relative viability ([4]; first compound 0.001 µM)	relative viability ([4]; first compound 0.003162 µM)	relative viability ([4]; first compound 0.01 µM)	relative viability ([4]; first compound 0.03162 µM)	relative viability ([4]; first compound 0.1 µM)
NCI-H2347	0.574	1.03	0.829	0.633	0.659	0.748	0.807	0.732	0.335	0.51	0.41	0.495	0.624	0.458	0.518	0.701	0.57	0.608
NCI-H2405	0.407	0.316	0.395	0.312	0.609	0.656	0.578	0.39	0.641	0.747	0.562	0.75	0.724	0.851	0.807	0.92	0.832	0.902
NCI-H3122	0.601	0.615	0.606	0.506	1.02	1.03	0.974	0.971	0.0909	0.0886	0.079	0.106	0.112	0.573	0.637	0.653	0.69	0.676
PC-3 [JPC-3]	0.651	0.792	0.801	0.759	0.742	0.872	0.927	0.697	0.556	0.676	0.808	0.733	0.724	1.15	1.1	1.21	1.05	1.12
PC-14	0.648	0.717	0.693	0.536	0.233	0.343	0.371	0.363	0.181	0.168	0.164		0.127	0.263	0.26	0.252	0.184	0.318
RERF-LC-KJ	0.527	0.51	0.55	0.593	1.04	1.19	1.06	1.03	1.12	1.19	1.38	0.96	1.12	0.931	0.807	0.938	0.545	0.972
